In US10344060B2 (priority 2013, dated 2019) one finds IC50 and Nav1.4/Nav1.7 data, which are given here for nine molecules.

For test [1], the target named is hNav1.4 (Homo sapiens, UniProt P35499). The experiment in a line: cell-based. The note with it: for IC50: PatchXpress, read-out: PX hNav1.4 Tonic IC50; for Nav1.4/Nav1.7: ratio of PX tonic IC50 values. The test is classed as cell-based.
In test [2] the target is hNav1.7 (Homo sapiens, UniProt Q15858). The experiment in a line: cell-based. In kind it is cell-based. The settings on record: for IC50: PatchXpress, read-out: PX hNav1.7 Tonic IC50.
hNav1.7, sequence (Q15858 whole entry): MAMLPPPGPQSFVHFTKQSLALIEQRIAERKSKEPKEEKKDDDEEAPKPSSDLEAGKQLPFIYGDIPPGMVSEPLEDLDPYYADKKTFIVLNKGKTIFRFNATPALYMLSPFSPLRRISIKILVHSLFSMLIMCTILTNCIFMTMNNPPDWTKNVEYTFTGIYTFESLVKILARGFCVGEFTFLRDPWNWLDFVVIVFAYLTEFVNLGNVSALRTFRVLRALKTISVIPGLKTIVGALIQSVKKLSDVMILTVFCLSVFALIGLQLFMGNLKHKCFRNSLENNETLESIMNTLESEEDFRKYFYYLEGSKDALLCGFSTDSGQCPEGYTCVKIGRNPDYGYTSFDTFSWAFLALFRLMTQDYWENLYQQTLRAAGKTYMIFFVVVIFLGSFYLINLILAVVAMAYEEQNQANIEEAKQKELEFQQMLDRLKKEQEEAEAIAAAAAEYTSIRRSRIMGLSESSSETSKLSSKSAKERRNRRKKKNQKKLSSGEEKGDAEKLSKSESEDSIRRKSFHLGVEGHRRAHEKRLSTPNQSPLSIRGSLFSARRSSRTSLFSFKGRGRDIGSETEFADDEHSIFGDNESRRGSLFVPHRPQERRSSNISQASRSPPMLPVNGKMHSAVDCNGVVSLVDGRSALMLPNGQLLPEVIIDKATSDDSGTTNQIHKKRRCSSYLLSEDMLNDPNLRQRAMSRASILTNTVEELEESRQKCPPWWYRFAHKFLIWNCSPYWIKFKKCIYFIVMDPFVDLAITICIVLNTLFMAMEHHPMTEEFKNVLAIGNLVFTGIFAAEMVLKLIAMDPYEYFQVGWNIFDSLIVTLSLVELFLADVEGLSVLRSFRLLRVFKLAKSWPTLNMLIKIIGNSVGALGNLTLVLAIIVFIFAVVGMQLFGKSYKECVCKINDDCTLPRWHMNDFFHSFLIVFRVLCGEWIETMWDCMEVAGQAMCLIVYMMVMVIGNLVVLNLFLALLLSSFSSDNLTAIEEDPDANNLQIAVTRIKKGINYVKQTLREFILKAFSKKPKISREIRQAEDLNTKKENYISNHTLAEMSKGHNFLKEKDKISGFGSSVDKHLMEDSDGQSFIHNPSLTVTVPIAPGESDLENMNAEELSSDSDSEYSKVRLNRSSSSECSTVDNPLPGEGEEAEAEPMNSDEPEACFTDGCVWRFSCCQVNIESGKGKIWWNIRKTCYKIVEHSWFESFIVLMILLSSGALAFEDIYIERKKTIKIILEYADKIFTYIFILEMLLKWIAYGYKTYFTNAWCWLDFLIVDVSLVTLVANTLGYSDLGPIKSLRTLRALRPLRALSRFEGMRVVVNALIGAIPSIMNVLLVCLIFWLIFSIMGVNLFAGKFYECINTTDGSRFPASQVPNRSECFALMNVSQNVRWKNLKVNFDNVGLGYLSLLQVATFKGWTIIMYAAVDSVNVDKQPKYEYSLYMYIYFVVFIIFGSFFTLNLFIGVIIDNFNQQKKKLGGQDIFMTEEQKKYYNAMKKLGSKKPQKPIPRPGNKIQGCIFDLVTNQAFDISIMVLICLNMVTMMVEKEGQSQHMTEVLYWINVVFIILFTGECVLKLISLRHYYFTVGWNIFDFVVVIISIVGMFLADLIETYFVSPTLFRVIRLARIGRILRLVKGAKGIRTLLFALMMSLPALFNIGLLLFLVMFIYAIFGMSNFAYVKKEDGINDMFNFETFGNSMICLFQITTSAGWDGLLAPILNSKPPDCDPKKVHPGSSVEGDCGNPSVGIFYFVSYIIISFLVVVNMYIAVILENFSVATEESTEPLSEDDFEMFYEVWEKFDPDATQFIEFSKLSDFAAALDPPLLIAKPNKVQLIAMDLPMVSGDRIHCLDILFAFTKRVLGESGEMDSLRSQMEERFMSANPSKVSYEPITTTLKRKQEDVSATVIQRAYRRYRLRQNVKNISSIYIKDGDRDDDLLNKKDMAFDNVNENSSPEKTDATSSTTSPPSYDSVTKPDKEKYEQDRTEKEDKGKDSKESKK

Read-outs that look alike come from different tables or passages of the source.

hNav1.4, sequence (P35499 whole entry): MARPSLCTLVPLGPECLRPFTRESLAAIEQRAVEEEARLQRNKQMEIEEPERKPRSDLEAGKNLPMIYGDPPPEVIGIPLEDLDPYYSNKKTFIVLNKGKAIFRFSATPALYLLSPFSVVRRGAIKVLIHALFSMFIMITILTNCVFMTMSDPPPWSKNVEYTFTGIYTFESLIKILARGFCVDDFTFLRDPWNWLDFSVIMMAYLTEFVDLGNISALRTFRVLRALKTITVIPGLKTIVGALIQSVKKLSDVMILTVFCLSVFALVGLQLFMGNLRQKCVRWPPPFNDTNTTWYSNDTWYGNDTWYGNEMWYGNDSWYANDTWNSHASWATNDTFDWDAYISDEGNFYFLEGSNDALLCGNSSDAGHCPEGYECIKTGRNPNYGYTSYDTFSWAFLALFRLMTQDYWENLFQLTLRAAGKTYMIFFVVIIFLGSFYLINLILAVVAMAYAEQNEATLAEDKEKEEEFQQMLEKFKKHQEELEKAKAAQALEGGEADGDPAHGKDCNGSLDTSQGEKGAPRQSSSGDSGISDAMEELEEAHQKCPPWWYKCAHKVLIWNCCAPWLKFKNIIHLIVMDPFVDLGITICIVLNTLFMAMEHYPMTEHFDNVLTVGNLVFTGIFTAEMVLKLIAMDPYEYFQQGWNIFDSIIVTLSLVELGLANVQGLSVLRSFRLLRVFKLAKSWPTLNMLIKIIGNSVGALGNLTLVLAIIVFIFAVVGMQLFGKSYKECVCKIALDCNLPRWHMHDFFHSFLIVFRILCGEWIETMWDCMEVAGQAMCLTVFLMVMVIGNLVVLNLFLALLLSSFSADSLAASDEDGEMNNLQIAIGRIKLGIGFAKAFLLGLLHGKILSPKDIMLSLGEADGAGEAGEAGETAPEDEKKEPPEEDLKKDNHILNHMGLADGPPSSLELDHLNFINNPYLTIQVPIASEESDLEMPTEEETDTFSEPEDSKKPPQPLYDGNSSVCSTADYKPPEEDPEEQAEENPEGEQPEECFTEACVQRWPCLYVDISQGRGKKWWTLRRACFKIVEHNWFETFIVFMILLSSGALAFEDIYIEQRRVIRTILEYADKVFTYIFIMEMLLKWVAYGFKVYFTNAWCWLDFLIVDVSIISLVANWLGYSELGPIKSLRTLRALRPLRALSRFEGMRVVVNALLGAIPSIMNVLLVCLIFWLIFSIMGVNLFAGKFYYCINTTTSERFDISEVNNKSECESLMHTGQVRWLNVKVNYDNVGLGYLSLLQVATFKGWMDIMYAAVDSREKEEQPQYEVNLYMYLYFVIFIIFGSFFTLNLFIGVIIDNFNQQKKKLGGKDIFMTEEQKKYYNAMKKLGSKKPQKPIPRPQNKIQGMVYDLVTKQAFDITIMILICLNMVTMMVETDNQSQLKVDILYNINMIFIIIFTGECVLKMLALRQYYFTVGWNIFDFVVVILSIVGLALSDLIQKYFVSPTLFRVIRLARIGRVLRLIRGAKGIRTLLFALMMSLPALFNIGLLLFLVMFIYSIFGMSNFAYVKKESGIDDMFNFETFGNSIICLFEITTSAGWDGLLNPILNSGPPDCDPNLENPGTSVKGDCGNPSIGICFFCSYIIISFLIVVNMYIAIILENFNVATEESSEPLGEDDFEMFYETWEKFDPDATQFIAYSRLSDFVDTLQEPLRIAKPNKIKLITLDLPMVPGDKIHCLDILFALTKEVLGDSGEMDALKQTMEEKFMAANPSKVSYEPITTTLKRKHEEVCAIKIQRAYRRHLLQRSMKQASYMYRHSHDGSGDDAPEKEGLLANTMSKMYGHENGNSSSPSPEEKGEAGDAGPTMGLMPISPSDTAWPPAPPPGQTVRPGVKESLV

Take `C#CC[C@@H]1NC(=O)[C@@H]2CSSC[C@H](NC(=O)[C@H](Cc3ccc(O)cc3)NC(=O)[C@@H](N)CC#N)C(=O)N[C@@H](CCC(N)=O)C(=O)N[C@@H](CCCCN)C(=O)N[C@@H](Cc3c[nH]c4ccccc34)C(=O)N[C@@H](CCCC)C(=O)N[C@@H](Cc3c[nH]c4ccccc34)C(=O)N[C@@H]([C@@H](C)O)C(=O)N[C@H]3CSSC[C@H](NC(=O)[C@H](CCCNC(=N)N)NC(=O)[C@H](CC(C)C)NC(=O)CNC1=O)C(=O)N[C@@H](CCCCN)C(=O)N[C@@H](CC(C)C)C(=O)N[C@@H](Cc1c[nH]c4ccc(Br)cc14)C(=O)N[C@H](C(=O)N[C@@H](CCCNC(=N)N)C(=O)N[C@@H](CCCCN)C(=O)N[C@H](C(=O)N[C@H](C(N)=O)[C@@H](C)CC)[C@@H](C)CC)CSSC[C@H](NC(=O)[C@H](C)NC(=O)[C@H](CCCNC(=N)N)NC(=O)[C@H](CCCCN)NC(=O)[C@H](CCC(=O)O)NC(=O)[C@H](CC(=O)O)NC3=O)C(=O)N2` [compound 1244]: the concentration for half-maximal inhibition (IC50) was found to be 7.4 nM in test [1] (Table 12, tonic block) and 0.64 nM in test [2] (Table 12, tonic block). For the same molecule, the Nav1.4/Nav1.7 in test [1] (Table 12) is 12.

On to `C#CC[C@H](N)C(=O)N[C@@H](Cc1ccc(O)cc1)C(=O)N[C@H]1CSSC[C@@H]2NC(=O)[C@@H]3CSSC[C@@H](C(=O)N[C@@H](CCCNC(=N)N)C(=O)N[C@@H](CCCCN)C(=O)N[C@H](C(=O)N[C@H](C(N)=O)[C@@H](C)CC)[C@@H](C)CC)NC(=O)[C@H](Cc4c[nH]c5ccccc45)NC(=O)[C@H](CC(C)C)NC(=O)[C@H](CCCCN)NC(=O)[C@H](CSSC[C@H](NC(=O)[C@H]([C@@H](C)O)NC(=O)[C@H](Cc4c[nH]c5ccccc45)NC(=O)[C@H](CCCC)NC(=O)[C@H](Cc4c[nH]c5ccccc45)NC(=O)[C@H](CCCCN)NC(=O)[C@H](CCC(N)=O)NC1=O)C(=O)N[C@@H](CC(=O)O)C(=O)N[C@@H](CO)C(=O)N[C@@H](CCC(=O)O)C(=O)N[C@@H](CCCNC(=N)N)C(=O)N[C@@H](C)C(=O)N3)NC(=O)[C@H](CCCNC(=N)N)NC(=O)[C@H](CC(C)C)NC(=O)CNC(=O)[C@H](CCCCN)NC2=O` [compound 729], for which the IC50 in test [1] (Table 12, tonic block) amounted to 7.6 nM; in test [2] (Table 12, tonic block), 1.87 nM. Further, the Nav1.4/Nav1.7 in test [1] (Table 12) was determined as 4.

As to `CC[C@H](C)[C@H](NC(=O)[C@@H](NC(=O)[C@H](CCCCN)NC(=O)[C@H](CCCNC(=N)N)NC(=O)[C@@H]1CSSC[C@@H]2NC(=O)[C@H](C)NC(=O)[C@H](CCCNC(=N)N)NC(=O)[C@H](CCCCN)NC(=O)[C@H](CO)NC(=O)[C@H](CC(=O)O)NC(=O)[C@@H]3CSSC[C@H](NC(=O)[C@H](CCCNC(=N)N)NC(=O)[C@H](CC(C)C)NC(=O)CNC(=O)[C@H](CCC(=O)O)NC(=O)[C@H](CSSC[C@H](NC(=O)[C@@H](N)Cc4ccc(O)cc4)C(=O)N[C@@H](CCC(=O)O)C(=O)N[C@@H](CCCCN)C(=O)N[C@@H](Cc4c[nH]c5ccccc45)C(=O)N[C@@H](CCSC)C(=O)N[C@@H](Cc4c[nH]c5ccccc45)C(=O)N[C@@H]([C@@H](C)O)C(=O)N3)NC2=O)C(=O)N[C@@H](CCCCN)C(=O)N[C@@H](CC(C)C)C(=O)N[C@@H](Cc2c[nH]c3ccccc23)C(=O)N1)[C@@H](C)CC)C(N)=O` [compound 50], the IC50 turned out to be 453 nM in test [1] (tonic, Table 11) and 58.7 nM in test [2] (tonic, Table 11). In addition, the Nav1.4/Nav1.7 in test [2] (ratio of PX tonic IC50 values, Table 11) is listed as 8.

Regarding `C#CC[C@@H]1NC(=O)[C@@H]2CSSC[C@H](NC(=O)[C@H](Cc3ccc(O)cc3)NC(=O)[C@@H](N)CC#N)C(=O)N[C@@H](CCC(N)=O)C(=O)N[C@@H](CCCCN)C(=O)N[C@@H](Cc3c[nH]c4ccccc34)C(=O)N[C@@H](CCCC)C(=O)N[C@@H](Cc3c[nH]c4ccccc34)C(=O)N[C@@H]([C@@H](C)O)C(=O)N[C@H]3CSSC[C@H](NC(=O)[C@H](CCCNC(=N)N)NC(=O)[C@H](CC(C)C)NC(=O)CNC1=O)C(=O)N[C@@H](CCCCN)C(=O)N[C@@H](CC(C)C)C(=O)N[C@@H](Cc1c[nH]c4ccc(C)cc14)C(=O)N[C@H](C(=O)N[C@@H](CCCNC(=N)N)C(=O)N[C@@H](CCCCN)C(=O)N[C@@H](CCC(=O)O)C(=O)N[C@H](C(N)=O)[C@@H](C)CC)CSSC[C@H](NC(=O)[C@H](C)NC(=O)[C@H](CCCNC(=N)N)NC(=O)[C@H](CCCCN)NC(=O)[C@H](CO)NC(=O)[C@H](CC(=O)O)NC3=O)C(=O)N2` [compound 1662], the IC50 is 89.8 nM in test [1] (Table 12, tonic block) and 0.52 nM in test [2] (Table 12, tonic block). Besides, in test [1] (Table 12), the Nav1.4/Nav1.7 is given as 172.

On to `C#CC[C@H](N)C(=O)N[C@@H](Cc1ccc(O)cc1)C(=O)N[C@H]1CSSC[C@@H]2NC(=O)[C@@H]3CSSC[C@@H](C(=O)N[C@@H](CCCNC(=N)N)C(=O)N[C@@H](CCCCN)C(=O)N[C@@H](CCC(=O)O)C(=O)N[C@H](C(N)=O)[C@@H](C)CC)NC(=O)[C@H](Cc4c[nH]c5ccccc45)NC(=O)[C@H](CC(C)C)NC(=O)[C@H](CCCCN)NC(=O)[C@H](CSSC[C@H](NC(=O)[C@H]([C@@H](C)O)NC(=O)[C@H](Cc4c[nH]c5ccccc45)NC(=O)[C@H](CCCC)NC(=O)[C@H](CCc4ccc(Br)cc4)NC(=O)[C@H](CCCCN)NC(=O)[C@H](CCC(N)=O)NC1=O)C(=O)N[C@@H](CC(=O)O)C(=O)N[C@@H](CO)C(=O)N[C@@H](CCCCN)C(=O)N[C@@H](CCCNC(=N)N)C(=O)N[C@@H](C)C(=O)N3)NC(=O)[C@H](CCCNC(=N)N)NC(=O)[C@H](CC(C)C)NC(=O)CNC(=O)[C@H](CCC(=O)O)NC2=O` [compound 1603], for which the IC50 was 47.9 nM in test [1] (Table 12, tonic block) and 0.23 nM in test [2] (Table 12, tonic block). In addition, in test [1] (Table 12), the Nav1.4/Nav1.7 was 207.

In the case of `C#CC[C@H](N)C(=O)N[C@@H](Cc1ccc(O)cc1)C(=O)N[C@H]1CSSC[C@@H]2NC(=O)[C@@H]3CSSC[C@@H](C(=O)N[C@@H](CCCNC(=N)N)C(=O)N[C@@H](CCCCN)C(=O)N[C@@H](CCC(=O)O)C(=O)N[C@@H](Cc4ccccc4)C(N)=O)NC(=O)[C@H](Cc4c[nH]c5ccccc45)NC(=O)[C@H](CC(C)C)NC(=O)[C@H](CCCCN)NC(=O)[C@H](CSSC[C@H](NC(=O)[C@H]([C@@H](C)O)NC(=O)[C@H](Cc4c[nH]c5ccccc45)NC(=O)[C@H](CCCC)NC(=O)[C@H](Cc4c[nH]c5ccccc45)NC(=O)[C@H](CCCCN)NC(=O)[C@H](CCC(N)=O)NC1=O)C(=O)N[C@@H](CC(=O)O)C(=O)N[C@@H](CO)C(=O)N[C@@H](CCCCN)C(=O)N[C@@H](CCCNC(=N)N)C(=O)N[C@@H](C)C(=O)N3)NC(=O)[C@H](CCCNC(=N)N)NC(=O)[C@H](CC(C)C)NC(=O)CNC(=O)[C@H](CCC(=O)O)NC2=O` [compound 861], the IC50 in test [1] (Table 12, tonic block) was 304 nM; in test [2] (Table 12, tonic block), 0.388 nM. Moreover, in test [1] (Table 12), the Nav1.4/Nav1.7 came to 785.

For `C#CC[C@H](N)C(=O)N[C@@H](CCC(=O)O)C(=O)N[C@H]1CSSC[C@@H]2NC(=O)[C@@H]3CSSC[C@@H](C(=O)N[C@@H](CCCNC(=N)N)C(=O)N[C@@H](CCCCN)C(=O)N[C@@H](CCC(=O)O)C(=O)N[C@H](C(N)=O)[C@@H](C)CC)NC(=O)[C@H](Cc4c[nH]c5ccccc45)NC(=O)[C@H](CC(C)C)NC(=O)[C@H](CCCCN)NC(=O)[C@H](CSSC[C@H](NC(=O)[C@H]([C@@H](C)O)NC(=O)[C@H](Cc4c[nH]c5ccccc45)NC(=O)[C@H](CCCC)NC(=O)[C@H](Cc4c[nH]c5ccccc45)NC(=O)[C@H](CCCCN)NC(=O)[C@H](CCC(N)=O)NC1=O)C(=O)N[C@@H](CC(=O)O)C(=O)N[C@@H](CCC(=O)O)C(=O)N[C@@H](CCCCN)C(=O)N[C@@H](CCCNC(=N)N)C(=O)N[C@@H](CCC(=O)O)C(=O)N3)NC(=O)[C@H](CCCNC(=N)N)NC(=O)[C@H](CC(C)C)NC(=O)CNC(=O)[C@H](CCC(=O)O)NC2=O` [compound 751], the IC50 came to 1920 nM in test [1] (Table 12, tonic block) and 10.2 nM in test [2] (Table 12, tonic block). The Nav1.4/Nav1.7 in test [1] (Table 12) is 189.

Consider `C#CC[C@H](N)C(=O)N[C@@H](Cc1ccc(O)cc1)C(=O)N[C@H]1CSSC[C@@H]2NC(=O)[C@@H]3CSSC[C@@H](C(=O)N[C@@H](CCCNC(=N)N)C(=O)N[C@@H](CCCCN)C(=O)N[C@@H](CCC(=O)O)C(=O)N[C@H](C(N)=O)[C@@H](C)CC)NC(=O)[C@H](Cc4c[nH]c5ccccc45)NC(=O)[C@H]([C@@H](C)CC)NC(=O)[C@H](CCCCN)NC(=O)[C@H](CSSC[C@H](NC(=O)[C@H]([C@@H](C)O)NC(=O)[C@H](Cc4c[nH]c5ccccc45)NC(=O)[C@H](CCCC)NC(=O)[C@H](Cc4c[nH]c5ccccc45)NC(=O)[C@H](CCCCN)NC(=O)[C@H](CCC(N)=O)NC1=O)C(=O)N[C@@H](CC(=O)O)C(=O)N[C@@H](CO)C(=O)N[C@@H](CCCCN)C(=O)N[C@@H](CCCNC(=N)N)C(=O)N[C@@H](C)C(=O)N3)NC(=O)[C@H](CCCNC(=N)N)NC(=O)[C@H](CC(C)C)NC(=O)CNC(=O)[C@H](CCC(=O)O)NC2=O` [compound 855], for which the IC50 came out at 193 nM in test [1] (Table 12, tonic block) and 1.06 nM in test [2] (Table 12, tonic block). The Nav1.4/Nav1.7 in test [1] (Table 12) turned out to be 182.

In the case of `C#CC[C@@H]1NC(=O)[C@@H]2CSSC[C@H](NC(=O)[C@@H](N)CC#N)C(=O)N[C@@H](CCC(N)=O)C(=O)N[C@@H](CCCCN)C(=O)N[C@@H](Cc3c[nH]c4ccccc34)C(=O)N[C@@H](CCCC)C(=O)N[C@@H](Cc3c[nH]c4ccccc34)C(=O)N[C@@H]([C@@H](C)O)C(=O)N[C@H]3CSSC[C@H](NC(=O)[C@H](CCCNC(=N)N)NC(=O)[C@H](CC(C)C)NC(=O)CNC1=O)C(=O)N[C@@H](CCCCN)C(=O)N[C@@H](CC(C)C)C(=O)N[C@@H](Cc1c[nH]c4ccccc14)C(=O)N[C@H](C(=O)N[C@@H](CCCNC(=N)N)C(=O)N[C@@H](CCCCN)C(=O)N[C@@H](CCC(=O)O)C(=O)N[C@H](C(N)=O)[C@@H](C)CC)CSSC[C@H](NC(=O)[C@H](C)NC(=O)[C@H](CCCNC(=N)N)NC(=O)[C@H](CCCCN)NC(=O)[C@H](CCC(=O)O)NC(=O)[C@H](CC(=O)O)NC3=O)C(=O)N2` [compound 1672], the half-inhibitory concentration (IC50) is 457 nM in test [1] (Table 12, tonic block) and 2.87 nM in test [2] (Table 12, tonic block). Besides, the Nav1.4/Nav1.7 in test [1] (Table 12) stood at 159.
